Two compounds from patent US9832992B1, “Microbicidal composition” (Dow Global Technologies LLC, priority 2013, dated 2017) can be followed below.

Like-named read-outs stand apart in the source and are kept apart here.

The MIC is the smallest concentration in the dilution series that meets the test's criterion for growth inhibition.

Common to all, as to type: cell-based
Assay [1] deals with Pseudomonas aeruginosa ATCC #15442. The assay is described as follows: MIC / synergy index test in 96 well microtiter plates, Gram negative bacteria. As to the method: (§1) Surfactants and biocides were evaluated for synergy by determining the synergy index (S.I.) of the combination. Synergy index was calculated based on minimum inhibitory concentrations (MIC) of two antimicrobial compounds (A and B) alone and in combinations. The tests organisms were Gram negative bacteria (Pseudomonas aeruginosa ATCC #15442), Gram positive bacteria (Staphylococcus aureus ATCC #6538), yeast (Candida albicans ATCC#10203) and mold (Aspergillus niger ATCC#16404). Contact time for the bacteria was 24 and 48 hours, yeast was 48 and 72 hrs, and 3 and 7 days for mold. The test was carried out in 96 well microtiter plates.
(§2) SI is calculated as follows: Ca/CA+Cb/CB=Synergy Index (“SI”)
(§3) Wherein: • CA=concentration of compound A in ppm, acting alone, which produced an end point (MIC of Compound A). • Ca=concentration of compound A in ppm, in the mixture, which produced an end point. • CB=concentration of compound B in ppm, acting alone, which produced an end point (MIC of Compound B). • Cb=concentration of compound B in ppm, in the mixture, which produced an end point. When the sum of Ca/CA and Cb/CB is greater than one, antagonism is indicated.

Assay [2] deals with Staphylococcus aureus ATCC #6538. The assay is described as follows: MIC / synergy index test in 96 well microtiter plates, Gram positive bacteria. As to the method:
as §1, §2, §3

Assay [3] deals with Candida albicans ATCC#10203. Put plainly: MIC / synergy index test in 96 well microtiter plates, yeast. As to the method:
as §1, §2, §3

Assay [4] concerns Aspergillus niger ATCC#16404. Put plainly: MIC / synergy index test in 96 well microtiter plates, mold. As to the method: as §1, §2, §3

In the case of `O=[N+]([O-])C(Br)(CO)CO` [BNPD, 2-bromo-2-nitropropane-1,3-diol], the “CB (MIC of compound B alone)” value in assay [1] (B: BNPD; table with Surf. D; 24 hrs; Media: 1/10 TSB; Inoculum size: 1.16E+08) came to 10 ppm; in assay [1] (B: BNPD; table with Surf. E; 24 hrs; Media: 1/10 TSB; Inoculum size: 5.727E+07 CFU/ml) it was 10 ppm; in assay [2] (B: BNPD; table with Surf. E; 24 hrs; Media: 1/10 TSB; Inoculum size: 1.808E+06 CFU/ml), 20 ppm; in assay [3] (B: BNPD; table with Surf. E; 48 hrs; Media: PDB; Inoculum size: 1.808E+06 CFU/ml) it was 1000 ppm. The MIC was 10 µg/mL in assay [1] (Pseudomonas aeruginosa, ATCC15442, 24 h; read-out: CB (MIC of compound B alone)); 20 µg/mL in assay [2] (Staphylococcus aureus, ATCC6538, 24 h; read-out: CB (MIC of compound B alone)); 1000 µg/mL in assay [3] (Candida albicans, ATCC10203, 48 h; read-out: CB (MIC of compound B alone)); 1000 µg/mL in assay [4] (Aspergillus niger, ATCC16404; read-out: CB (MIC of compound B alone)).
For `CN1CSC(=S)N(C)C1` [DAZOMET, tetrahydro-3,5-dimethyl-2H-1,3,5-thiadiazine-2-thione], the MIC stood at 80 µg/mL in assay [1] (Pseudomonas aeruginosa, ATCC15442, 24 h, read-out: CB (MIC of compound B alone)); 200 µg/mL in assay [2] (Staphylococcus aureus, ATCC6538, 24 h, read-out: CB (MIC of compound B alone)); 50 µg/mL in assay [3] (Candida albicans, ATCC10203, 48 h, read-out: CB (MIC of compound B alone)); 60 µg/mL in assay [4] (Aspergillus niger, ATCC16404, read-out: CB (MIC of compound B alone)). Besides, the “CB: MIC of B alone” value in assay [2] (B: DAZOMET alone; 24 hrs; Media 1/10 TSB; inoculum 5.72E+05) came out at 200 PPM AI. The “CB (MIC of compound B alone)” value in assay [3] (B: DAZOMET; table with Surf. D; 48 hrs; Media: PDB; Inoculum size: 5.72E+05) is reported as 50 ppm. Also, the “CB: MIC of B (DAZOMET) alone” value in assay [4] (A. niger ATCC #16404; 3rd day; Media: PDB; Inoculum size: 1.156E+06; table with A: Surf. E) is on record as 30 PPM AI; in assay [4] (A. niger ATCC #16404; 3rd day; Media: PDB; Inoculum size: 1.56E+06; table with A: Surf. D), 40 PPM AI.
